The subject of series [1] is TXA2 biosynthesis. As to the kind of experiment: TXA2 biosynthesis inhibitory test (bovine platelet microsome, TXB2 by radioimmunoassay). The series is classed as biochemical. The conditions noted are these: in 10 μM. On the procedure:
TXA2 BIOSYNTHESIS INHIBITORY TEST
After a mixture of 70 μl (40 μg of protein, 100 mM Tris-hydrochloridebuffer, pH 7.4) of bovine platelet microsome and 10 μl (10% methanol-containing 100 mM Tris-hydrochloride buffer) of a test compound solution was settled at 0° C. for 5 minutes, 20 μl of prostaglandin H2 solution (0.1 nmol, in Tris-hydrochloride buffer described above containing 20% acetone) as substrate was added to the mixture. Five minutes after, 2.9 ml of stopping solution [100 mM, Trishydrochloride buffer containing 0.1 μM of OKY-1581; Tromb. Res. 23, 145 (1981)] was added to stop the reaction.
TXA2 was unstable in the buffer solution, and nonenzymatically converted to TXB2. An amount of thromboxane B2 (TXB2) formed in the reaction solution was determined by radioimmunoassay [F. A. Fitzpatrick et al., Methods in Enzymology, 86, 286 (1982)]. An inhibition rate of the test compound was calculated according to the following equation. [formula]
The amount of TXB2 formed in control refers to a value obtained when the same reaction was carried out, using a solvent containing no test compound.
The amount of TXB2 formed in blank refers to a value obtained when the reaction was carried out in the system in which the stopping solution was added prior to adding substrate.

The subject of series [2] is dd strain male mice. As to the kind of experiment: Acute toxicity test (MLD, mortality for seven days). The format is in vivo. The conditions noted are these: minimum lethal dose, 7 days; for Acute Toxicity (MLD) ip: intraperitoneal. On the procedure:
Using three dd strain male mice weighing 20±1 g, a test compound was orally (po; 300 mg/kg) or intraperitoneally (ip; 100 mg/kg) administered. MLD (the minimum lethal dose) was determined by observing the mortality for seven days after administration.

Series [3] deals with T1, TXA2 /prostaglandin H2 receptor (Cavia porcellus, UniProt A0A286Y4I8).
T1 construct: platelet rich plasma (PRP) was obtained; endogenous in cells; host or cells: guinea pig (Hartley) platelets in platelet rich plasma
T1 sequence (A0A286Y4I8 1-347): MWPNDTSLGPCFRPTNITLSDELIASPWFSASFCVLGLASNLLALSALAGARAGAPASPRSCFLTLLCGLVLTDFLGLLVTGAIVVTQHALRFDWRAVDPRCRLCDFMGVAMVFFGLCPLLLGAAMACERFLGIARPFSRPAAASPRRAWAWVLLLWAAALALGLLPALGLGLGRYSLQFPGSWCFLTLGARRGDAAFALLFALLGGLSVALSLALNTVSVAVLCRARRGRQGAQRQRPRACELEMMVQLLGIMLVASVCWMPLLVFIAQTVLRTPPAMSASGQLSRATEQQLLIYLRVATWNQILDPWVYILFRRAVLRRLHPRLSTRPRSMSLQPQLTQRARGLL
Kind of series: Anti-aggregatory effect: inhibition of platelet aggregation induced by U-46619 (TXA2-antagonizing action). The series is classed as cell-based, guinea pig (Hartley strain). The conditions noted are these: minimum concentration inhibiting aggregation by 30% or more; U-46619 0.5-1 μM; guinea pig PRP. On the procedure: TEST ON ANTI A[…] (TXA2 -AN[…])
Using guinea pig platelet, influence of the compounds on platelet aggregation induced by U-46619 (9,11-dideoxy-9α,11a-methanoepoxyprostaglandin F2α; manufactured by Cayman Chemical Co., Ltd.) which was a TXA2 /prostaglandin H2 receptor stimulant was examined.
Male guinea pig (Hartley strain; body weight, 300 to 600 g) was anesthesized by intraperitoneal administration of sodium pentobarbital (30 mg/kg) and blood was collected from the descending aorta of the abdomen with a 1/10 volume of 3.8% trisodium citrate. By centrifugation (KC-70: manufactured by Kubota Co., Ltd.) at 800 rpm for 15 minutes, platelet rich plasma (PRP) was obtained, Platelet aggregation induced by U-46619 (0.5-1 μM) was determined by photometry [Born, G.V.R. et al., Nature (London), 194, 927-929 (1962)]. A test compound was pretreated for 3 minutes and the ability to inhibit aggregation was determined. The minimum concentration which inhibits platelet aggregation by 30% or more was defined as the minimum effective concentration (MEC) of the test compound.

For series [4], the system named is thrombus formation on cotton thread. Kind of series: Antithrombotic activity: thrombus formation on cotton thread in extracorporeal circulation path. The series is classed as in vivo, Wistar male rats. The conditions noted are these: oral, rat, 2 hours prior, mean ± standard error, control 25.9 ± 1.2. The method, then: Effect of a test compound on thrombus formation on cotton thread which was kept in an extracorporeal circulation path for the artery and vein in anesthesized rats was examined in a manner similar to the method of Smith et al. [Br. J. Pharmacol., 77, 29 (1982)].
Wistar male rats weighing 250 to 400 g were anesthesized by intraperitoneal administration of sodium pentobarbital at a dose of 30 mg/kg and an extracorporeal circulation path made of a polyethylene tube having a length of 30 cm extending from the right carotid artery to the left jugular vein was installed. Cotton thread (No. 30) having a length of 5.5 cm was inserted into the circulation path and a weight of thrombus formed on the cotton thread during blood perfusion for 15 minutes was measured. Similar operations were performed twice and the total weight of thrombus formed by the two blood perfusions was shown as the weight of thrombus. […]

Molecules are shown by their SMILES.

In the case of `Cn1cnnc1SC/C=C1\c2ccccc2COc2ccc(C(=O)O)cc21` [Compound E-156b, (E)-11-[2-[(4-Methyl-4H-1,2,4-triazol-3-yl)thio]ethylidene]-6,11-dihydrodibenz[b,e]oxepin-2-carboxylic acid], the “TXA2 Biosynthesis Inhibitory Activity Inhibition Rate” value in series [1] is on record as -10%. Further, in series [2], the “Acute Toxicity (MLD) ip” value is above 100 mg/kg and the “Acute Toxicity (MLD) po” value was above 300 mg/kg. Moreover, the “TXA2 Antagonizing Activity (MEC)” value in series [3] is 1.0 µg/mL.

In the case of `C/C(=C\c1ccc(Cc2cccnc2)cc1)C(=O)O` [OKY 1581, reference compound], the “TXA2 Biosynthesis Inhibitory Activity Inhibition Rate” value in series [1] is listed as 100%. For the same molecule, in series [2], the “Acute Toxicity (MLD) ip” value was above 100 mg/kg and the “Acute Toxicity (MLD) po” value is on record as above 300 mg/kg. In series [3], the “TXA2 Antagonizing Activity (MEC)” value came to 30 µg/mL.

Regarding `CN(C)CC/C=C1/c2ccccc2COc2ccc(CC(=O)O)cc21` [KW 4679, reference compound], the “TXA2 Biosynthesis Inhibitory Activity Inhibition Rate” value in series [1] worked out at 1%. Further, in series [2], the “Acute Toxicity (MLD) ip” value was above 100 mg/kg and the “Acute Toxicity (MLD) po” value is reported as above 300 mg/kg. Further, the “TXA2 Antagonizing Activity (MEC)” value in series [3] was 30 µg/mL.

In the case of `O=C(O)c1ccc2c(c1)/C(=C/Cn1ccnc1)c1ccccc1CO2` [Compound E-37b', (E)-11-[2-(1-imidazolyl)ethylidene]-6,11-dihydrodibenz[b,e]oxepin-2-carboxylic acid 0.2 hydrate], the “TXA2 Biosynthesis Inhibitory Activity Inhibition Rate” value in series [1] came out at 94%. Besides, in series [2], the “Acute Toxicity (MLD) ip” value is above 100 mg/kg and the “Acute Toxicity (MLD) po” value is given as above 300 mg/kg. Moreover, the “TXA2 Antagonizing Activity (MEC)” value in series [3] was 3 µg/mL.

Regarding `COc1ccc2c(c1)ncn2C/C=C1\c2ccccc2COc2ccc(C(=O)O)cc21` [Compound E-61b, (E)-11-[2-(5-Methoxy-1-benzimidazolyl)ethylidene]-6,11-dihydrodibenz[b,e]oxepin-2-carboxylic acid], the “TXA2 Biosynthesis Inhibitory Activity Inhibition Rate” value in series [1] is on record as 1%. Further, the “TXA2 Antagonizing Activity (MEC)” value in series [3] amounted to 0.1 µg/mL.

With `O=C(O)c1ccc2c(c1)C(SCc1cccnc1)c1ccccc1CO2` (stereo not drawn) [Compound 14b, 11-[(3-Pyridyl)methyl]thio-6,11-dihydrodibenz[b,e]oxepin-2-carboxylic acid], in series [1], the “TXA2 Biosynthesis Inhibitory Activity Inhibition Rate” value worked out at 100%. Also, in series [2], the “Acute Toxicity (MLD) ip” value is on record as above 100 mg/kg and the “Acute Toxicity (MLD) po” value is listed as above 300 mg/kg. The “TXA2 Antagonizing Activity (MEC)” value in series [3] is 3 µg/mL.

As to `COc1cc2ncn(C/C=C3\c4ccccc4COc4ccc(C(=O)O)cc43)c2cc1OC` [Compound E-101b, (E)-11-[2-(5,6-Dimethoxy-1-benzimidazolyl)ethylidene]-6,11-dihydrodibenz[b,e]oxepin-2-carboxylic acid], in series [1], the “TXA2 Biosynthesis Inhibitory Activity Inhibition Rate” value stood at 17%. Further, in series [2], the “Acute Toxicity (MLD) ip” value is reported as above 100 mg/kg and the “Acute Toxicity (MLD) po” value was above 300 mg/kg. Besides, the “TXA2 Antagonizing Activity (MEC)” value in series [3] came out at 0.3 µg/mL.

In the case of `O=C(O)c1ccc2c(c1)C(=NCc1cccnc1)c1ccccc1CO2` [Compound 25b, 11-[(3-Pyridyl)methyl]imino-6,11-dihydrodibenz[b,e]oxepin-2-carboxylic acid], the “TXA2 Biosynthesis Inhibitory Activity Inhibition Rate” value in series [1] is listed as 100%. In series [2], the “Acute Toxicity (MLD) ip” value was above 100 mg/kg and the “Acute Toxicity (MLD) po” value was above 300 mg/kg. For the same molecule, in series [3], the “TXA2 Antagonizing Activity (MEC)” value was determined as 1 µg/mL.

Turning to `O=C(O)c1ccc2c(c1)C(NCc1cccnc1)c1ccccc1CO2` (stereo not drawn) [Compound 9c, 11-[(3-Pyridyl)methyl]amino-6,11-dihydrodibenz[b,e]oxepin-2-carboxylic acid], the “TXA2 Biosynthesis Inhibitory Activity Inhibition Rate” value in series [1] is 100%. Also, in series [2], the “Acute Toxicity (MLD) ip” value is above 100 mg/kg and the “Acute Toxicity (MLD) po” value is given as above 300 mg/kg. Besides, the “TXA2 Antagonizing Activity (MEC)” value in series [3] stood at 30 µg/mL.

With `O=C(O)COc1ccc(CCNS(=O)(=O)c2ccccc2)cc1` [BM13177], the “Weight of Thrombus” value in series [4] (30 mg/kg) is recorded as 24.8 ± 1.8 mg; in series [4] (100 mg/kg, **P < 0.01), 18.9 ± 1.8 mg.

As to `O=C(O)Cc1ccc(CCNS(=O)(=O)c2ccc(Cl)cc2)cc1` [BM13505, reference compound], the “TXA2 Biosynthesis Inhibitory Activity Inhibition Rate” value in series [1] is listed as 8%. In series [2], the “Acute Toxicity (MLD) ip” value was above 100 mg/kg and the “Acute Toxicity (MLD) po” value is above 300 mg/kg. For the same molecule, in series [3], the “TXA2 Antagonizing Activity (MEC)” value was 0.1 µg/mL.

As to `COc1ccc2ncn(C/C=C3\c4ccccc4COc4ccc(C(=O)O)cc43)c2c1` [Compound E-62b, (E)-11-[2-(6-Methoxy-1-benzimidazolyl)ethylidene]-6,11-dihydrodibenz[b,e]oxepin-2-carboxylic acid], the “TXA2 Biosynthesis Inhibitory Activity Inhibition Rate” value in series [1] is 11%. Besides, in series [3], the “TXA2 Antagonizing Activity (MEC)” value turned out to be 1 µg/mL.

The values are drawn from patent US4999363A, “Tricyclic compounds” (priority 1988, dated 1991).
